Biological target: P. falciparum apicoplast DNA polymerase (Pf-apPOL) (Plasmodium falciparum, UniProt Q8ILY1)
Assay: Fluorescence-based high-throughput DNA polymerase assay (molecular beacon), primary screen and dose-response
Format: biochemical
Conditions: for DNA Pol: unit not given, 90 min, 10 µM
Procedure: The HT assay employs a molecular beacon, a stem-loop DNA template with a Cy3 dye and the Black Hole Quencher on the 3′ and 5′ ends of the DNA, respectively. Pf-apPOL concentration is based on a calculated absorptivity of ε280 = 56750 M^−1 cm^−1. Reactions were carried out at 25 °C, using Corning 3575 […] (well-volume, 20 µL). Assays testing for compound inhibition composed of reaction buffer (pH 7.9 in 50 mM potassium acetate, 20 mM Tris-acetate and 10 mM magnesium acetate), Pf-apPOL (20 nM), DNA substrate (20 nM), dNTPs (6 µM), and compound (10 µM in DMSO). The DNA and nucleotide substrates (dNTPs) were at concentrations of 20 nM and 6 µM, respectively, in the assay. Pf-apPOL was incubated in the reaction buffer with dNTPs and the compound of interest (10 µM, in the assay) at 25 °C for 10 min. The DNA substrate was then added and the reaction was allowed to proceed for 90 min at 25 °C.
Each assay plate contained 16 negative controls (no Pf-apPOL, DMSO present) and 16 positive controls (Pf-apPOL present, no DMSO). The fluorescence of each well was determined using a BioTek Synergy Neo fluorescence plate reader using excitation and emission wavelengths of 555 and 570 nm, respectively.
In the above, Min is the average of fluorescence emission of the negative controls (substrate only), Max the average fluorescence emission from the positive controls (enzyme + substrate), and Test the emission from the assays in the presence of compounds (enzyme + compound + substrates). […] […] The IC50 of each compound was determined using Equation (2): (2) IC50= Vmax/(1+ (I/IC50)^n)
In the above, n measures cooperativity, with n > 1 indicating synergistic binding of more than a single molecule of the compound.
To identify apPOL inhibitors we utilised our previously developed high-throughput DNA polymerase assay. The HT assay is based on a molecular beacon DNA template that forms a stem-loop with a Cy3 dye and the Black Hole Quencher on the 3′ and 5′ ends of the DNA, respectively. DNA polymerase activity extends an annealed primer through the stem region, displacing the fluorophore from the quencher, thereby increasing its fluorescence (Figure 1(A)). The assay accurately recapitulates the kinetic behaviour of apPOL, as measured through more conventional low-throughput gel-based assays. The Z′ factor for the assay described here was 0.9 across all plates (data not shown).
Figure 1. High-throughput screening. (A) The fluorescent-based DNA polymerase assay used to screen the compound libraries. The DNA template strand is a hairpin loop with a primer annealed to the loop. The 3’ end of the primer is 11 bases away from the 6 bp duplex. Strand displacement activity of the DNA polymerase separates the Cy3 dye from the Black hole quencher leading to an increase in fluorescent signal. (B) The high-throughput assay workflow. The DNA polymerase is incubated with […] compound for 10 min prior to addition of the hairpin substrate. The reaction is quenched at 3 different time points and the fluorescent signal is measured and % inhibition is determined using the provided equation.

Chain of P. falciparum apicoplast DNA polymerase (Pf-apPOL) (Q8ILY1 entry or part of it): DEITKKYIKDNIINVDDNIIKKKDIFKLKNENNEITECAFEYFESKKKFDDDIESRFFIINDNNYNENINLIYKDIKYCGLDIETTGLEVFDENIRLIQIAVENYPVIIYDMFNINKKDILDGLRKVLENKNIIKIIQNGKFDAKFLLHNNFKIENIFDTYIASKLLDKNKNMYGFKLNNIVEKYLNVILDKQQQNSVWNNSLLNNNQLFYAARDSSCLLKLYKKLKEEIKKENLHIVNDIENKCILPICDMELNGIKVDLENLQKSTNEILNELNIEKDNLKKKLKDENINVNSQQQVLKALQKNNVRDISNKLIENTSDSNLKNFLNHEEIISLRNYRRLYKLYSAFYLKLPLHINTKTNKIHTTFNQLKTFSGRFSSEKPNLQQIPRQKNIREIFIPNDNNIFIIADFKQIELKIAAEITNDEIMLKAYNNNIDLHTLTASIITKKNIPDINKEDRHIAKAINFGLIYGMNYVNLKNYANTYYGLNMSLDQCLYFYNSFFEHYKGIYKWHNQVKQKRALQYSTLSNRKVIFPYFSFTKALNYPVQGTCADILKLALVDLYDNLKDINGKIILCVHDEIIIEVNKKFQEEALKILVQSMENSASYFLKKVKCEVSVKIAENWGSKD

`N#Cc1c(C2CCCCC2)nc(Sc2ccc(C(F)(F)F)cc2[N+](=O)[O-])[nH]c1=O` [Molecule 20, N#Cc1c(=O)[nH]c(nc1C1CCCCC1)Sc1ccc(cc1N(=O)=O)C(F)(F)F] was tested, and the “DNA Pol” value ('DNA Pol' of the 186 hits list (primary screen result)) was 99, the “% inhibition Apo pol 10'” value (DRC-1, concentration 2.5) was 13.479% and the “% inhibition Apo pol 10'” value (DRC-1, concentration 5) was 22.3075%. For the same compound, the “% inhibition Apo pol 10'” value (DRC-1, concentration 10) was 58.5642%, the “% inhibition Apo pol 10'” value (DRC-1, concentration 20) was 88.1341% and the “% inhibition Apo pol 10'” value (DRC-1, concentration 40) was 96.8636%. The “% inhibition Apo pol 10'” value (DRC-1, concentration 80) was 98.9889%, the “% inhibition Apol 90'” value (DRC-1, 90', concentration 2.5) was 11.5568% and the “% inhibition Apol 90'” value (DRC-1, 90', concentration 5) was 20.2551%. For the same compound, the “% inhibition Apol 90'” value (DRC-1, 90', concentration 10) was 55.7655%, the “% inhibition Apol 90'” value (DRC-1, 90', concentration 20) was 84.5767% and the “% inhibition Apol 90'” value (DRC-1, 90', concentration 40) was 95.5899%. For the same compound, the “% inhibition Apol 90'” value (DRC-1, 90', concentration 80) was 98.5408%, the “% inhibition apPOL 180'” value (DRC-1, 180', concentration 2.5) was 4.639% and the “% inhibition apPOL 180'” value (DRC-1, 180', concentration 5) was 10.6134%. The “% inhibition apPOL 180'” value (DRC-1, 180', concentration 10) was 43.2916%, the “% inhibition apPOL 180'” value (DRC-1, 180', concentration 20) was 78.9137% and the “% inhibition apPOL 180'” value (DRC-1, 180', concentration 40) was 94.1749%. The “% inhibition apPOL 180'” value (DRC-1, 180', concentration 80) was 98.1002%, the “% inhibition Apo pol 5'” value (DRC-2, 5', concentration 20 (unit not given)) was 55% and the “% inhibition Apol 40'” value (DRC-2, 40', concentration 10 (unit not given)) was 55%. The “% inhibition ApPOL 90'” value (DRC-2, 90', concentration 40 (unit not given)) was 77%, the “% inhibition apPOL 180'” value (DRC-2, 180', concentration 40 (unit not given)) was 77% and the “% inhibition Apo pol 5'” value (DRC-2, 5', concentration 2.5) was 3.66%. For the same compound, the “% inhibition Apo pol 5'” value (DRC-2, 5', concentration 5) was 11%, the “% inhibition Apo pol 5'” value (DRC-2, 5', concentration 10) was 43% and the “% inhibition Apo pol 5'” value (DRC-2, 5', concentration 20) was 55%. The “% inhibition Apo pol 5'” value (DRC-2, 5', concentration 40) was 60%, the “% inhibition Apo pol 5'” value (DRC-2, 5', concentration 80) was 61% and the “% inhibition Apol 40'” value (DRC-2, 40', concentration 2.5) was 6.56%. For the same compound, the “% inhibition Apol 40'” value (DRC-2, 40', concentration 5) was 16%, the “% inhibition Apol 40'” value (DRC-2, 40', concentration 10) was 55% and the “% inhibition Apol 40'” value (DRC-2, 40', concentration 20) was 68%. The “% inhibition Apol 40'” value (DRC-2, 40', concentration 40) was 75%, the “% inhibition Apol 40'” value (DRC-2, 40', concentration 80) was 78% and the “% inhibition ApPOL 90'” value (DRC-2, 90', concentration 2.5) was 4.51%. The “% inhibition ApPOL 90'” value (DRC-2, 90', concentration 5) was 13%, the “% inhibition ApPOL 90'” value (DRC-2, 90', concentration 10) was 54% and the “% inhibition ApPOL 90'” value (DRC-2, 90', concentration 20) was 69%. The “% inhibition ApPOL 90'” value (DRC-2, 90', concentration 40) was 77%, the “% inhibition ApPOL 90'” value (DRC-2, 90', concentration 80) was 82% and the “% inhibition apPOL 180'” value (DRC-2, 180', concentration 2.5) was -0.258%. The “% inhibition apPOL 180'” value (DRC-2, 180', concentration 5) was 7%, the “% inhibition apPOL 180'” value (DRC-2, 180', concentration 10) was 46% and the “% inhibition apPOL 180'” value (DRC-2, 180', concentration 20) was 64%. The “% inhibition apPOL 180'” value (DRC-2, 180', concentration 40) was 77%, the “% inhibition apPOL 180'” value (DRC-2, 180', concentration 80) was 85% and the “DNA Pol” value (primary screen value of the library well) was 99.
In the case of `N#Cc1c(C2CCCCC2)nc(Sc2ccc(C(F)(F)F)cc2[N+](=O)[O-])[nH]c1=O` [Molecule 20], the IC50 (supplemental file 2, sheet IC50 nontoxic compounds, Pf-apPOL) is reported as 8.81 µM.
